According to patent publication US11660319B2, “Compositions comprising bacterial strains” (priority 2017, dated 2023):

Columns and labels:
[1] = test system: HDAC; test: HDAC inhibition on whole HT-29 cells and HT-29 cell lysate; format: cell-based; details: for total HDAC activity, pure substances: HT-29, whole cells or lysate not told apart in the sentence
Method: Bacterial culture and cell-free supernatant collection Pure cultures of bacteria were grown anaerobically in YCFA broth until they reached their stationary growth phase. Cultures were centrifuged at 5,000×g for 5 minutes and the cell-free supernatant (CFS) was filtered using a 0.2 μM filter (Millipore, UK). 1 mL aliquots of the CFS were stored at −80° C. until use. Sodium butyrate, hexanoic and valeric acid were obtained from Sigma Aldrich (UK) and suspensions were prepared in YCFA broth.
To investigate which metabolites were responsible for the strain-induced HDAC inhibition, different concentrations of hexanoic acid, valeric acid and sodium butyrate were measured for their HDAC inhibition on whole HT-29 cells and on HT-29 cell lysate.

[2] = test system: SHSY5Y; test: Neurite outgrowth: microscopy and MAP2 gene expression (qPCR); format: cell-based, human; details: for neurite outgrowth / neuron-like phenotype: undifferentiated SHSY-5Y cells, 10% bacteria supernatant, 200 uM hexanoic acid or 200 uM valproic acid, 17 hrs
Method: SHSY5Y were plated in 10 cm petri dishes a density of 2×10^6 cells. After 24 h cells were treated in differentiation medium (growth medium containing 1% FBS without RA) with 10% bacteria supernatants or YCFA+, 10 uM RA, 200 uM hexanoic acid or 200 uM valproic acid, for 17 hrs. There after representative images were taken using phase contrast EVOS XL core microscope at 40×/0.65 magnification. Cells were collected, and total RNA was isolated according to RNeasy mini kit protocol (Qiagen). cDNAs were made using the high capacity cDNA reverse transcription kit (Applied Biosystems). Gene expression was measured using qPCR. GAPDH was used as internal control. Fold change was calculated according to the 2^(−ΔΔct) method.
Cells were seeded onto 8 well chamber slides (Marienfeld Laboratory Glassware) at 5×10^4 cells/well overnight and were treated with 10% bacterial supernatant for 24 hrs. For differentiation, cells were treated with 10 nM Retinoic acid for 5 days before treating with bacterial supernatant. Cells were then fixed with 4% paraformaldehyde in PBS for 20 minutes at room temperature (RT). Fixed cells were washed with PBS, and permeabilized with 1% Triton X-100 in PBS for 10 minutes. After washing with PBS, the slides were incubated with blocking buffer (4% BSA/PBS) for 1 hr at RT before adding anti-MAP2 antibody (sc-74421, Santa Cruz Biotechnology Inc) diluted in 1% BSA/PBS for 12 hr at 4° C. They were then washed twice with PBS, followed by incubation with Alexa Flour 488 conjugated anti-mouse (Molecular Probes Inc) and Alexa Flour 594 conjugated Phalloidin (ab 176757, Abcam) for 1 hr at RT. After washing 3× with PBS, the slides were mounted with Vectorshield[…] containing DAPI (Sigma, Aldrich). Slides were viewed using a Zeiss Axioscope microscope equipped with a 63×/1.2 W Korr objective and filter sets suitable for detection of the fluorochromes used. Manual exposure times for the digital acquisition of images immuno-labelled with MAP-2 were kept constant allowing comparison between different wells and treatments. Phalloidin (F-actin) and DAPI exposure times varied to suit the field of view. Randomised fields of view were acquired using a QImaging camera controlled by Image Pro Plus software. Images were saved as TIFs and opened in Adobe Photoshop CC 2015.1.2 and overlays of the MAP-2, DAPI and Phalloidion images overlaid and merged. Representative images were selected to illustrate the differences in abundance and location of the proteins examined

[3] = test system: SH-SY5Y neuroblastoma cells; test: Neuroprotection / cell viability of neuroblastoma cells treated with MPP (CCK-8); format: cell-based, human; details: for protection compared to YCFA-MPP+ treated sample: RA-differentiated SHSY-5Y cells treated with MPP+
Method: Once grown the SH-SY5Y neuroblastoma cells were plated on 96-well plate at 11,000 cells/well and incubated for 2 days. The cells were then transferred to differentiation medium (which contains FBS at 1%) and 10 uM retinoic acid (Sigma Aldrich, cat. n. R2625-100MG). Differentiation medium was replaced every other day and cells were harvested at 7 day of differentiation. Cells were pre-treated with or without MPP (Sigma Aldrich, cat. n. D048-1G) for 8 hours. Subsequently, cells were treated with 10% bacterial supernatant and incubated overnight. Cell viability was measured by using CCK-8 reagent (Sigma Aldrich, Cell Counting Kit-8, cat. n. 96992-3000TESTS-F) and read at 450 nm wavelength.

[4] = test system: BALBc mice; test: Gene expression in hippocampus, amygdala and prefrontal cortex (qPCR); format: in vivo, mouse
Method: Animals were allowed to habituate to their holding room for one week after arrival into the animal unit. They receive oral gavage (200 μL dose) of live biotherapeutics at a dose of 1×10^9 CFU for 6 consecutive days between 15:00 and 17:00. On day 7, the animals are decapitated, and tissues are harvested for experimentation.
(§1) Total RNA was extracted using the mirVana™ miRNA Isolation kit (Ambion/Llife technologies, Paisley, UK) and DNase treated (Turbo DNA-free, Ambion/life technologies) according to the manufacturers recommendations. RNA was quantified using NanoDrop™ spectrophotometer (Thermo Fisher Scientific Inc., Wilmington, Del., USA) according to the manufacturer's instructions. RNA quality was assessed using the Agilent Bioanalyzer (Agilent, Stockport, UK) according to the manufacturer's procedure and an RNA integrity number (RIN) was calculated. RNA with RIN value >7 was used for subsequent experiments. RNA was reverse transcribed to cDNA using the Applied Biosystems High Capacity cDNA kit (Applied Biosystems, Warrington, UK) according to manufacturer's instructions. Briefly, Multiscribe Reverse Transcriptase (50 U/μL) (1)(2)(1)(10) was added as part of RT master mix, incubated for 25° C. for 10 min, 37° C. for 2 h, 85° C. for 5 min and stored at 4° C. Quantitative PCR was carried out using probes (6 carboxy fluorescein-FAM) designed by Applied Biosystems to mouse specific targeted genes, while using β-actin as an endogenous control. Amplification reactions contained 1 μl cDNA, 5 μl of the 2× PCR Master mix (Roche), 900 nM of each primer and were brought to a total of 10 μl by the addition of RNase-free water. All reactions were performed in triplicate using 96-well plates on the LightCycler®480 System. Thermal cycling conditions were as recommended by the manufacturer (Roche) for 55 cycles. To check for amplicon contamination, each run contained no template controls in triplicate for each probe used. Cycle threshold (Ct) values were recorded. Data was normalized using β-actin and transformed using the 2-ΔΔCT method and presented as a fold change vs. control group.
Expression of genes for neurotransmitter receptors [serotonin receptor 1a(5-HTR1a), dopamine D1 receptor, GABA receptor subunit B1, GABAA receptor, NMDA2A (Grin2A) and NMDA2B (Grin2b) receptor], inflammatory markers [IL-1β, IL6, CD11b, TNFα and TLR4], and endocrine markers [corticosterone releasing factor (CRF), corticosterone releasing factor receptors 1 and 2 (CRFR1, CRFR2), brain-derived neurotrophin factor (BDNF), vasopressin receptor, oxytocin receptor, glucocorticoid receptor and mineralocorticoid receptor] were analysed in brain tissue from the hippocampus, amygdala and prefrontal cortex.

[5] = test system: mouse Splenocytes; test: Spleen cytokine assay ex vivo (LPS or ConA stimulation); format: in vivo
Method: Spleens were collected immediately in 5 mL RPMI media following sacrifice and cultured immediately. Spleen cells were first homogenised in this RPMI media, followed by 5 mins incubation with 1 ml of RBC lysis buffer (11814389001 ROCHE, Sigma). A further 10 ml of RPMI media was added, followed by 200G centrifugation for 5 mins. The supernatant was then filtered through 40 um strainer. Cells were counted and seeded (4,000,000/mL media). After 2.5 h of adaptation, cells were stimulated with lipopolysaccharide (LPS-2 μg/ml) or concanavalin A (ConA-2.5 μg/ml) for 24 h. Following stimulation, the supernatants were harvested to assess the cytokine release using Proinflammatory Panel 1 (mouse) V-PLEX Kit (Meso Scale Discovery, Maryland, USA) for TNFα, IL-10, IL-1β, Interferon γ, CXCL2 and IL6. The analyses were performed using MESO QuickPlex SQ 120, SECTOR Imager 2400, SECTOR Imager 6000, SECTOR S 600.
The ex-vivo splenocyte assay involves challenging the splenocytes (cells isolated from the spleen—a main organ involved in immune defense), with a bacterio- or viral-mimetic challenge.

[6] = test system: HT29-mtx epithelial, mucin-producing cell monolayers; test: IL-8 secretion of HT29-mtx monolayers; format: cell-based; details: bacterial supernatants 24 h; compared to untreated and YCFA-treated cells
Description: HT29-mtx epithelial, mucin-producing cell monolayers were used as an in vitro model to evaluate gut barrier disruption and immune stimulation following treatment with MRx0005 and MRx0029.

[7] = test system: HT29-mtx epithelial, mucin-producing cell monolayers; test: mRNA expression of tight junction proteins in HT29-mtx (qRT-PCR); format: cell-based
Method: Total RNA was extracted using the RNeasy mini kit (Qiagen, Manchester, JUK) according to the manufacturer's instructions, and the RNA concentration determined by absorbance at 260/280 nm using a spectrophotometer (nano-Drop ND-1000; Thermo Scientific, Wilmington, Del.). For mRNA expression analysis, cDNA was prepared from total RNA using the High-Capacity cDNA reverse transcription kit (Applied Biosystems, UK) according to the manufacturer's instructions. The reverse transcription reactions were performed in a Thermo cycler (Biometra, Germany) at 25° C. for 10 min, 37° C. for 120 min, and 85° C. for 5 min, hold on at 4° C. Resulting cDNA was amplified in duplicates by the SYBR-Green PCR assay, and products were detected on QuantStudio 6 flex real-time PCR machine (Applied Biosystems, UK) using a standardised profile (initial denaturation of 95° C. for 10 minutes, followed by 40 cycles of 15 seconds of denaturation at 95° C. and 60 seconds of annealing/extension at 60/65° C., depending on the primers. A dissociation stage was added after the 40 cycles to generate a melting curve. Analysis was performed using the Applied Biosystems QuantStudio Real-Time PCR Software v1.2. The primer sequences for Actin, Villin, Occludin TJP1 and TJP2 are provided in the sequence listing.

[8] = test system: BALBc mice; test: Monoamine analysis in brainstem of mice fed with bacteria (HPLC); format: in vivo, mouse; details: 1×10^9 CFU oral gavage 6 days
Method: Neurotransmitter concentration was analysed by HPLC on samples from the brainstem. Briefly, brainstem tissue was sonicated in 500 μl of chilled mobile phase spiked with 4 ng/40 μl of N-Methyl 5-HT (Sigma Chemical Co., UK) as internal standard. The mobile phase contained 0.1 M citric acid, 5.6 mM octane-1-sulphonic acid (Sigma), 0.1 M sodium dihydrogen phosphate, 0.01 mM EDTA (Alkem/Reagecon, Cork) and 9% (v/v) methanol (Alkem/Reagecon) and was adjusted to pH 2.8 using 4 N sodium hydroxide (Alkem/Reagecon). Homogenates were then centrifuged for 15 min at 22,000×g at 4° C. and 40 μl of the supernatant injected onto the HPLC system which consisted of a SCL 10-Avp system controller, LECD 6A electrochemical detector (Shimadzu), a LC-10AS pump, a CTO-10A oven, a SIL-10A autoinjector (with sample cooler maintained at 40 C) and an online Gastorr Degasser (ISS, UK). A reverse-phase column (Kinetex 2.6 u C18 100×4.6 mm, Phenomenex) maintained at 30° C. was employed in the separation (Flow rate 0.9 ml/min). The glassy carbon working electrode combined with an Ag/AgCl reference electrode (Shimdazu) operated a +0.8 V and the chromatograms generated were analyzed using Class-VP 5 software (Shimadzu). The neurotransmitters were identified by their characteristic retention times as determined by standard injections, which run at regular intervals during the sample analysis. The ratios of peak heights of analyte versus internal standard were measured and compared with standard injection. Results were expressed as ng of neurotransmitter per g fresh weight of tissue.

[9] = test system: BALBc mice; test: Ex vivo gene expression in colon and ileum of mice fed with bacteria; set-up: species or system mouse
Method: as §1, with “Animals were allowed to habituate to their holding room for one week after arrival into the animal unit. They receive oral gavage (200 μL dose) of live biotherapeutics at a dose of 1×10^9 CFU for 6 consecutive days between 15:00 and 17:00. On day 7, the animals are decapitated, and tissues are harvested for experimentation. The in vitro results were compared with data from the ex vivo parallel analysis on the gut of mice fed with […] expression of TJP2 and occludin was quantified in the colon and ileum. […] Total” for “Total”, “mirVanaTM” for “mirVana™”, “NanoDropTM” for “NanoDrop™”, “RNA with RIN value >7 was used for subsequent experiments.” left out

CCCCCC(=O)O [hexanoic acid]
total HDAC activity, pure substances [1]: did not show significant inhibitory activity | neurite outgrowth / neuron-like phenotype [2]: enhance neurite outgrowth

O=c1c(O)c(-c2ccc(O)c(O)c2)oc2cc(O)cc(O)c12 [quercetin, reference compound]
protection compared to YCFA-MPP+ treated sample [3]: about the same

CCCC(=O)[O-].[Na+] [sodium butyrate, reference compound]
total HDAC activity, pure substances [1]: significant HDAC inhibition | HDAC inhibition, HT29 cell lysate ([1]; HT-29 cell lysate): significant (P<0.05) inhibition | HDAC inhibition, HT29 whole cell ([1]; whole HT-29 cells): significant (P<0.05) inhibition

CCCC(CCC)C(=O)O [valproic acid, reference compound]
neurite outgrowth / neuron-like phenotype [2]: increases neurite outgrowth | MAP2 expression ([2]; undifferentiated neuroblastoma cells, qPCR, GAPDH internal control): increase

Parabacteroides distasonis [MRx0005]
expression of BDNF ([4]; amygdala): significantly increased | expression of CD11b ([4]; amygdala): increase | expression of GABBR1 ([4]; amygdala): increased | expression of GABRA2 ([4]; amygdala): significantly increased | expression of Grin2a ([4]; amygdala): reduced | expression of Grin2b ([4]; amygdala): reduced | expression of IL-6 ([4]; amygdala): reduced | expression of BDNF ([4]; prefrontal cortex): significant increase | proliferation of neurons ([3]; 10% bacterial supernatant, without MPP): increase | protection compared to YCFA-MPP+ treated sample [3]: about 20% | mitochondria metabolic activity ([3]; RA-differentiated SHSY-5Y cells, per se (no MPP+)): increase | interleukin-6 in splenocytes ([5]; challenge with LPS): reduced | levels of interferon-γ in splenocytes ([5]; challenge with LPS): significantly reduced | tumour necrosis factor in splenocytes ([5]; challenge with LPS): reduced | levels of the chemoattractant CXCL1 ([5]; splenocytes): increase | secretion of IL-8 [6]: even lower secretion | gene expression of tight junction proteins [7]: did not alter | dopamine in brain [8]: decrease | IDO-1 expression ([9]; colon): increase | expression of IDO1 ([9]; ileum): increased | expression of Tph1 ([9]; ileum): increased
